# Data as given in ChEMBL document CHEMBL5247590, “Novel nitrogen mustard-artemisinin hybrids with potent anti-leukemia action through DNA damage and activation of GPx” (Eur J Med Chem, 2022).
# pIC50: −log10 of the molar value.
# Assays:
# U-118-MG = assay: Antiproliferative activity against human U-118-MG cells assessed as cell growth inhibition incubated for 72 hrs by MTT assay; format: functional, cell-based
# HCT-116 = assay: Antiproliferative activity against human HCT-116 cells assessed as cell growth inhibition incubated for 72 hrs by MTT assay; format: functional, cell-based; settings: HCT-116, 72 h
# [1] = Antiproliferative activity against human L02 cells assessed as cell growth inhibition incubated for 72 hrs by MTT assay; format: toxicity, cell-based
# SH-SY5Y = assay: Antiproliferative activity against human SH-SY5Y cells assessed as cell growth inhibition incubated for 72 hrs by MTT assay; format: functional, cell-based
# CCRF-CEM = assay: Antiproliferative activity against human CCRF-CEM cells assessed as cell growth inhibition incubated for 72 hrs by MTT assay; format: functional, cell-based
# A549 = assay: Antiproliferative activity against human A549 cells assessed as cell growth inhibition incubated for 72 hrs by MTT assay; format: functional, cell-based; settings: A549, 72 h
# K562 = assay: Antiproliferative activity against human K562 cells assessed as cell growth inhibition incubated for 72 hrs by MTT assay; format: functional, cell-based; settings: K562, 72 h
# HL-60 [2] = assay: Antiproliferative activity against human HL-60 cells assessed as cell growth inhibition incubated for 72 hrs by MTT assay; format: functional, cell-based; settings: HL-60, 72 h
# [3] = Selectivity index, ratio of IC50 for human HL-60 cells to IC50 for human CCRF-CEM cells
# [4] = Selectivity index, ratio of IC50 for human K562 cells to IC50 for human CCRF-CEM cells
# [5] = Selectivity index, ratio of IC50 for human L02 cells to IC50 for human CCRF-CEM cells; format: toxicity; settings: L02 cells and CCRF-CEM cells, read-out: Selectivity Index
# [6] = Antitumor activity against human L02 cells assessed as cell growth inhibition; format: toxicity, cell-based
# Bel-7402 = assay: Antitumor activity against human Bel-7402 cells assessed as cell growth inhibition; format: functional, cell-based
# [7] = Antitumor activity against PBMC cells (unknown origin) assessed as cell growth inhibition; format: functional, cell-based; settings: Homo sapiens
# HL-60 [8] = assay: Antitumor activity against human HL-60 cells assessed as cell growth inhibition; format: functional, cell-based
Structure (SMILES),pIC50 (U-118-MG),pIC50 (HCT-116),IC50 at 72 h [1] [µM],pIC50 (SH-SY5Y),pIC50 (CCRF-CEM),pIC50 (A549),pIC50 (K562),pIC50 (HL-60 [2]),Selectivity Index [3],Selectivity Index [4],selectivity ratio [5],pIC50 [6],pIC50 (Bel-7402),pIC50 [7],pIC50 (HL-60 [8])
C[C@@H]1CC[C@@H]2[C@]34OO[C@](C)(CC[C@@H]13)O[C@H]4O[C@]2(C)COC(=O)c1ccc(N(CCCl)CCCl)cc1,< 4.40,5.10,> 40,< 4.40,5.35,5.28,–,–,–,–,–,–,–,–,–
C[C@@H]1CC[C@@H]2[C@]34OO[C@](C)(CC[C@@H]13)O[C@H]4O[C@]2(C)COC(=O)Cc1ccc(N(CCCl)CCCl)cc1,< 4.40,4.40,> 40,< 4.40,5.42,< 4.40,< 4.00,4.68,–,–,–,–,–,–,–
COc1cccc2c1C(=O)c1c(O)c3c(c(O)c1C2=O)C[C@@](O)(C(=O)CO)C[C@@H]3O[C@H]1C[C@H](N)[C@H](O)[C@H](C)O1 [DOXORUBICIN],–,5.73,–,5.81,–,–,–,–,–,–,–,–,–,–,–
C[C@@H]1CC[C@H]2[C@@H](C)C(OC(=O)c3ccccc3N(CCCl)CCCl)O[C@@H]3O[C@@]4(C)CC[C@@H]1[C@]32OO4 (stereo not given in full),< 4.40,4.59,8.24,< 4.40,5.47,5.09,–,–,–,–,–,–,–,–,–
C[C@@H]1CC[C@@H]2[C@]34OO[C@](C)(CC[C@@H]13)O[C@H]4O[C@]2(C)COC(=O)CCc1ccc(N(CCCl)CCCl)cc1,< 4.40,4.68,> 40,< 4.40,5.05,< 4.40,–,–,–,–,–,–,–,–,–
C[C@H]1[C@@H](O)O[C@@H]2O[C@@]3(C)CC[C@H]4[C@H](C)CC[C@@H]1[C@@]24OO3 [ARTENIMOL],–,< 4.40,24.3,< 4.40,5.29,< 4.40,4.66,4.21,–,–,–,–,–,–,–
C[C@@H]1CC[C@H]2[C@@H](C)C(OC(=O)Cc3ccc(N(CCCl)CCCl)cc3)O[C@@H]3O[C@@]4(C)CC[C@@H]1[C@]32OO4 (stereo not given in full),< 4.40,5.23,15.9,< 4.40,5.80,4.90,4.81,4.95,–,–,–,–,–,–,–
C[C@@H]1CC[C@@H]2[C@]34OO[C@](C)(CC[C@@H]13)O[C@H]4O[C@]2(C)COC(=O)c1ccccc1N(CCCl)CCCl,< 4.40,4.93,7.68,4.66,5.83,5.24,5.02,6.10,9.73,0.8,5.19,–,–,–,–
Cc1cc(C(=O)OC2O[C@@H]3O[C@@]4(C)CC[C@H]5[C@H](C)CC[C@@H]([C@H]2C)[C@@]35OO4)ccc1N(CCCl)CCCl (stereo not given in full),< 4.40,5.17,5,< 4.40,5.73,5.15,–,–,–,–,–,–,–,–,–
C[C@@H]1CC[C@H]2[C@@H](C)C(OC(=O)c3ccc(N(CCCl)CCCl)c(F)c3)O[C@@H]3O[C@@]4(C)CC[C@@H]1[C@]32OO4 (stereo not given in full),< 4.40,5.38,> 40,< 4.40,4.61,5.07,–,–,–,–,–,–,–,–,–
C[C@@H]1CC[C@@H]2[C@]34OO[C@](C)(CC[C@@H]13)O[C@H]4O[C@]2(C)COC(=O)CCCc1ccc(N(CCCl)CCCl)cc1,< 4.40,< 4.40,> 40,< 4.40,4.60,< 4.40,–,–,–,–,–,–,–,–,–
C[C@@H]1CC[C@H]2[C@@H](C)C(OC(=O)c3cccc(N(CCCl)CCCl)c3)O[C@@H]3O[C@@]4(C)CC[C@@H]1[C@]32OO4 (stereo not given in full),< 4.40,–,> 40,< 4.40,< 4.40,5.49,–,–,–,–,–,–,–,–,–
C=C1C(=O)[C@]23[C@H](OC(=O)c4ccc(N(CCCl)CCCl)cc4)[C@H]1CC[C@H]2[C@@]12CO[C@@]3(O)[C@@H](O)[C@@H]1C(C)(C)CC[C@@H]2O,–,–,–,–,–,–,–,–,–,–,–,5.39,6.30,–,–
Cc1cc(C(=O)OC[C@@]2(C)O[C@@H]3O[C@@]4(C)CC[C@H]5[C@H](C)CC[C@@H]2[C@@]35OO4)ccc1N(CCCl)CCCl,< 4.40,5.37,1.87,< 4.40,6.26,5.15,6.23,5.53,0.63,3.18,3.37,–,–,–,–
COC(=O)[C@H](Cc1ccc(N(CCCl)CCCl)cc1)NC(=O)CCC(=O)OCCCOCCCn1c2c(c3ccccc31)CCN1C(=O)c3ccccc3N(C)[C@H]21,–,–,–,–,–,–,–,–,–,–,–,–,–,< 3.70,6.30
O=C(OCCCOc1ccc(-c2cc(=O)c3c(O)c(O)c(O)cc3o2)cc1)c1ccc(N(CCCl)CCCl)cc1,–,–,–,–,–,–,–,–,–,–,–,< 4.30,–,–,–
C[C@@H]1CC[C@@H]2[C@]34OO[C@](C)(CC[C@@H]13)O[C@H]4O[C@]2(C)COC(=O)c1ccc(N(CCCl)CCCl)c(F)c1,< 4.40,< 4.40,> 40,< 4.40,< 4.40,< 4.40,–,–,–,–,–,–,–,–,–
O=C(O)CCCc1ccc(N(CCCl)CCCl)cc1 [CHLORAMBUCIL],< 4.40,< 4.40,–,< 4.40,4.92,< 4.40,< 4.00,4.46,24.1,1.05,8.79,–,–,–,–
C[C@@H]1CC[C@@H]2[C@]34OO[C@](C)(CC[C@@H]13)O[C@H]4O[C@]2(C)COC(=O)c1cccc(N(CCCl)CCCl)c1,4.66,5.07,32,< 4.40,< 4.40,< 4.40,–,–,–,–,–,–,–,–,–
C[C@@H]1CC[C@H]2[C@@H](C)C(OC(=O)CCCc3ccc(N(CCCl)CCCl)cc3)O[C@@H]3O[C@@]4(C)CC[C@@H]1[C@]32OO4 (stereo not given in full),< 4.40,4.91,> 40,< 4.40,5.86,4.83,–,–,–,–,–,–,–,–,–
C=C1C(=O)[C@@]23C(=O)O[C@H]4CCC(C)(C)[C@H]5[C@H](O)OC[C@@]45[C@@H]2CC[C@@H]1[C@H]3OC(=O)c1ccc(N(CCCl)CCCl)cc1,–,–,–,–,–,–,–,–,–,–,–,< 4.00,–,–,–
C[C@@H]1CC[C@H]2[C@@H](C)C(OC(=O)CCc3ccc(N(CCCl)CCCl)cc3)O[C@@H]3O[C@@]4(C)CC[C@@H]1[C@]32OO4 (stereo not given in full),< 4.40,5.09,> 40,< 4.40,5.38,< 4.40,4.30,4.52,–,–,–,–,–,–,–
